Results: US20260053931A1, “MDM2 TARGETING PROTACS” (THE WISTAR INSTITUTE OF ANATOMY AND BIOLOGY, priority 2023, published 2026)

Key:
MCF7 = experiment: Cytotoxicity to wild type p53 cells; assay type: cell-based; settings: Homo sapiens
Mdm2 [1] = molecular target: T1, Mdm2 (Homo sapiens, UniProt Q00987); experiment: Mdm2 HTRF binding assay (Table 2); settings: read-out: Mdm2 HTRF IC50
From the text: An HTRF binding assay was developed using a biotinylated peptide containing the Mdm2-binding domain of p53 and a recombinant GST-tagged N-terminus of Mdm2 containing the p53-binding domain. HTRF is a proximity-based fluorescence energy transfer (FRET) assay that takes advantage of the unique time-resolved fluorescence of the lanthanide chelates, such as terbium and europium. HTRF IC50 values are provided for all key compounds (FIG. 13C, FIG. 19B, and Table 2).
Target sequence in this assay (Q00987 26-109 limits assumed): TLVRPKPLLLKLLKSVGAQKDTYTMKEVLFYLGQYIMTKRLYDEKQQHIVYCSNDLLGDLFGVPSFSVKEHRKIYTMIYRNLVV

mut p53 MDA-MD-231 cells = experiment: Live cell count with CellTag700 Stain in ICW format
Procedure: Cells are seeded in 96 half area well plates (black clear bottom) and cultured overnight. Then they are treated with compounds, fixed with 4% paraformaldehyde for 20 minutes, and permeabilized in 0.1% Triton. They are then treated with the primary antibody and secondary antibody conjugated to IRDye800CW or treated with CellTag 700 Stain. The plates are then scanned on the OdysseyCLX and the data processed to provide a dose response curve.
Since genetic deletion of Mdm2 induces p73 and induces apoptosis in p53 mutant and deficient cancer cells, YX-02-030 and YX-02-228 were evaluated for their effect on cell viability. First, the CellTag700 Stain was utilized to count the number of live cells in the ICW format.

VHL = VHL (Homo sapiens, UniProt P40337); experiment: HTRF binding assay for VHL (Table 2)
From the text: (§1) Biochemical assays in 384-well format have established to assess the binding of newly synthesized PROTACs to the appropriate E3 ligase using HTRF technology. In these assays an anti-HIS antibody conjugated to terbium was used as the donor fluor, and either a Cy5 labeled small molecule probe, or a biotinylated peptide that is bound to a streptavidin acceptor.

Mdm2 [2] = molecular target: T1, Mdm2; experiment: In-Cell Western, mut p53 MDA-MB-231 cell line; assay type: cell-based; set-up: endogenous in cells; host or cells: MCF7 (A8); MDA-MB-231 (A9); settings: mutant p53 MDA-MB-231
Procedure: (§2) Cells were seeded at decreasing cell number from 15K cells to 2K cells. The Mdm2 primary antibody was tested at 1:200 and 1:300 dilution. The secondary antibody conjugated to IRDye800CW was used with 1:800 dilution, and CellTag 700 Stain was used at 1:1000 dilution as manufacture recommended. The linearity of cell number versus signal was generated with Prism. The signal over background ratio was also calculated.
(§3) The potential PROTACs were evaluated in the wt p53 MCF7 cell line and in the mut p53 MDA-MB-231 cell line. Importantly these were compared to MD-224, which was recently reported to potently degrade Mdm2 in RS4; 11 leukemia cells (Li et al., 2019). Assay linearity was performed confirming a strong 4-fold signal to noise in the assay. A series of bi-functional molecules were then treated and evaluated for protein level in the assay over time from 2 h-48 h. […] In this wt p53 cancer cell line the stabilization of p53 (FIG. 15B), and subsequent p53-mediated transcriptional upregulation of Mdm2 make it difficult to observe degradation. […] These compounds were evaluated in the mutant p53 cancer cells. […] In this cell line, it takes approximately 16-24 h to detect the degradation. […] The difference in the molecules is that MD-224 utilizes a CRBN recruiting ligand.
Target sequence in this assay (Q00987 whole entry, the tested form may be a part): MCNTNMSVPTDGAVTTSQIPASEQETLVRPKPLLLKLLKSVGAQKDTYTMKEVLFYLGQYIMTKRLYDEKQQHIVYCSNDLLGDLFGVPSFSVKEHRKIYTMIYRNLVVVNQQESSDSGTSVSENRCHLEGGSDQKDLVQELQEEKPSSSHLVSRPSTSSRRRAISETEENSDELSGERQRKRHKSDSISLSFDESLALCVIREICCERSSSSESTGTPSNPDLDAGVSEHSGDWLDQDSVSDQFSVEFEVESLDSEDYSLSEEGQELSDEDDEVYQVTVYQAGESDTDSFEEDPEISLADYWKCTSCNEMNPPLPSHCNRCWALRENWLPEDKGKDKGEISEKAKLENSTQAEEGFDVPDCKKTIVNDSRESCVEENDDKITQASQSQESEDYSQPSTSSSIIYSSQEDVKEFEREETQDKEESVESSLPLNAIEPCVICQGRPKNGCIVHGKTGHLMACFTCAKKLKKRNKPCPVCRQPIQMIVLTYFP

[3] = molecular target: T2, human cereblon (CRBN) complex (Homo sapiens, UniProt Q96SW2); experiment: HTRF binding assay for Cereblon (Table 2)
T2 construct: purchased R & D systems
From the text: as §1
Cereblon: Recombinant human cereblon (CRBN) complex, including CUL4A, RBX1, DDB1 and CRBN is purchased from R & D systems. This four-member protein complex has an N-terminal HIS tag on the CUL4A subunit. The CRBN complex is diluted in assay buffer containing anti-HIS-Tb Cryptate Gold (CisBio) and is added to low volume 384-well plates. Test compounds in 100% DMSO are added to the plates followed by the Cy5-labeled lenolidamide probe. After 1 hour the HTRF signal is measured on the Envision. Data are normalized to % inhibition. The typical signal-to-noise is 5:1. Bi-functional molecules containing the Cereblon ligands are tested in TABLE 2 (see YX-02-041).

[4] = test system: Mdm2-/-p53-/- sarcoma cells; experiment: Murine Mdm2-/-p53-/- sarcoma cells, MTT; assay type: cell-based, mouse; settings: MTT assay, 48 hrs
From the text: A-B. Murine Mdm2+/+p53-null sarcoma cells treated with Mdm2 PROTAC (YX-02-030), control YX-02-023 (−), or vehicle (DMSO). A. Western blots after 24 hrs (cleaved caspase 3, CC3. Mdm2^−/−p53^−/− fibroblasts were a control for the Western blot). B. Dose response curve (MTT assay, 48 hrs). C. Dose response curves of murine Mdm2^−/−p53^−/− sarcoma cells treated with Mdm2 PROTAC (YX-02-030), negative controls (−), a Bcl2/Bclx/Bclw inhibitor (+), or vehicle control (MTT assay, quadruplicate, 48 hrs- MTT assay, B-C graphed relative to DMSO).

Mdm2 [5] = molecular target: T1, Mdm2; experiment: In-Cell Western, wt p53 MCF7 cell line; assay type: cell-based; set-up: endogenous in cells; host or cells: MCF7 (A8); MDA-MB-231 (A9); settings: wt p53 MCF7, 2 h-48 h
Procedure: as §2, §3
Target sequence in this assay (Q00987 whole entry, the tested form may be a part): as above

VHL complex = molecular target: T3, VHL complex (Homo sapiens, UniProt P40337); experiment: Inhibition of HIF-1α peptide binding to the VHL complex using HTRF (Table 3); settings: mean ± S.E.M. of three replications; read-out: VHL-HIFa peptide IC50
T3 construct: purchased R&D systems E3-655-025
Procedure: Assays contained 2 nM of HIS-VHL complex (R&D systems, E3-655-025), 2 nM of biotin-hydroxyproline-HIF1α peptide (Biotin-[…] (SEQ ID NO: 2), X=hydroxyproline), 0.3 nM anti-HIS-Tb HTRF donor antibody and 4 nM streptavidin-d2 HTRF acceptor (PerkinElmer) in a final volume of 10 μL of 25 mM HEPES, pH 7.4, 150 mM NaCl, 5 mM DTT, 0.005% Tween20 in white low volume 384-well plates. Both HIS-VHL complex and biotin-HIF1α peptide were pre-incubated with their respective HTRF antibodies for 15 min. Test compounds were solubilized at 10 mM in DMSO and concentration series was added to the assay plate using the Echo 650 acoustic liquid handling system by direct dilution. The final amount of DMSO added to the assay was 100 nL […]. Compounds were pre-incubated with HIS-VHL complex before the addition of the biotin-HIF1α peptide. After a 2 hr incubation, the HTRF signal was measured using the ClarioStar plate reader (BMG Labtech). […] IC50 values were determined from nonlinear regression fits of a data to a four parameter dose-response equation using XLFit (IDBS). Data are the means±S.E.M. of three replications. The data is described in Table 3 above.

VHL, sequence (P40337 whole entry): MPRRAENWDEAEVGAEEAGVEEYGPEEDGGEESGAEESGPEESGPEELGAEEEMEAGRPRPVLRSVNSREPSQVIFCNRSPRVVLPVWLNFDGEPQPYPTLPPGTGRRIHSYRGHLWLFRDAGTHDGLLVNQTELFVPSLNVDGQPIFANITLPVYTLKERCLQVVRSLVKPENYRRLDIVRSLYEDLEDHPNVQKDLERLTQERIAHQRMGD
VHL, sequence (Q15370 whole entry partner): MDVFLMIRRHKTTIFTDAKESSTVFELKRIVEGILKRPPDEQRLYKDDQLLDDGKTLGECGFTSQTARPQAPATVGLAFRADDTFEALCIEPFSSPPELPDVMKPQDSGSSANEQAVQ
VHL, sequence (Q15369 whole entry partner): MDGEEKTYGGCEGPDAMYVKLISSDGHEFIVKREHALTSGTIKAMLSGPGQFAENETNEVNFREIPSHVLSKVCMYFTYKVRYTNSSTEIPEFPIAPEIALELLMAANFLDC
T3 sequence (P40337 whole entry): as the sequence (P40337 whole entry) above
T3 sequence (Q15370 whole entry partner): as the sequence (Q15370 whole entry partner) above
T3 sequence (Q15369 whole entry partner): as the sequence (Q15369 whole entry partner) above
T3 sequence (Q13617 whole entry partner): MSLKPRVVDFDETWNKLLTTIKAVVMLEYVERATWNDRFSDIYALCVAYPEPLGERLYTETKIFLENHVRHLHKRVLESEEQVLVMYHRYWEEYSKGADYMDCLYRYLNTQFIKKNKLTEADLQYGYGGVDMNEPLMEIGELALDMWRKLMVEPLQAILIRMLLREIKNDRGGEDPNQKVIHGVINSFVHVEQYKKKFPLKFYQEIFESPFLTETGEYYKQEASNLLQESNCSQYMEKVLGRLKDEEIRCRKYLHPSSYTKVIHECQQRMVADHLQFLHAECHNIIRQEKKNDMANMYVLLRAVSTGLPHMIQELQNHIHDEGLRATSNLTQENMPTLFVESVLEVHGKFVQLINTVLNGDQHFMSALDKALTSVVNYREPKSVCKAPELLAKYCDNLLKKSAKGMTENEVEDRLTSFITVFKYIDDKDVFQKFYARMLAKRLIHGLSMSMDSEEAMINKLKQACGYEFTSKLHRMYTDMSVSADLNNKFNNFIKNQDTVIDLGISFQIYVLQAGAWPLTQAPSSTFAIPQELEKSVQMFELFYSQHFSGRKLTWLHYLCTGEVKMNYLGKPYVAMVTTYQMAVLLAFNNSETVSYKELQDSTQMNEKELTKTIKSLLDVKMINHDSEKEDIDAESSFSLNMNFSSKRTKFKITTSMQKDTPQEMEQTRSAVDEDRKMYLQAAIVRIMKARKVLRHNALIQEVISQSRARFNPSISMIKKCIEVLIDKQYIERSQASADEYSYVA
T3 sequence (P62877 whole entry partner): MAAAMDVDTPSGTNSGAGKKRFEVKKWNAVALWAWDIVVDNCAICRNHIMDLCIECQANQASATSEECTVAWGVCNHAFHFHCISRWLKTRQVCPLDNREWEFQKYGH
T2 sequence (Q96SW2 whole entry): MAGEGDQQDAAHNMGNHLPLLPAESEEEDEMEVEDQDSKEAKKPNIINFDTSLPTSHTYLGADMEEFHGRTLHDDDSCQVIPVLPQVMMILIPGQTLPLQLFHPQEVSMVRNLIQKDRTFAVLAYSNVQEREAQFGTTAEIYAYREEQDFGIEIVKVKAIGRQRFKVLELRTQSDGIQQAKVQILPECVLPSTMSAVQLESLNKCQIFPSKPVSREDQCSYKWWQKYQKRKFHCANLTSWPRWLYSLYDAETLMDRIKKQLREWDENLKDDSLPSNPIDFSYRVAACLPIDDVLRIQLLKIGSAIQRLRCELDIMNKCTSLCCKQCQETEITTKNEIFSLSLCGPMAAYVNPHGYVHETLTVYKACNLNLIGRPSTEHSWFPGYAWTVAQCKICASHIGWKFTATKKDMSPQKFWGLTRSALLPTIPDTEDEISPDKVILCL
T2 sequence (Q16531 whole entry partner): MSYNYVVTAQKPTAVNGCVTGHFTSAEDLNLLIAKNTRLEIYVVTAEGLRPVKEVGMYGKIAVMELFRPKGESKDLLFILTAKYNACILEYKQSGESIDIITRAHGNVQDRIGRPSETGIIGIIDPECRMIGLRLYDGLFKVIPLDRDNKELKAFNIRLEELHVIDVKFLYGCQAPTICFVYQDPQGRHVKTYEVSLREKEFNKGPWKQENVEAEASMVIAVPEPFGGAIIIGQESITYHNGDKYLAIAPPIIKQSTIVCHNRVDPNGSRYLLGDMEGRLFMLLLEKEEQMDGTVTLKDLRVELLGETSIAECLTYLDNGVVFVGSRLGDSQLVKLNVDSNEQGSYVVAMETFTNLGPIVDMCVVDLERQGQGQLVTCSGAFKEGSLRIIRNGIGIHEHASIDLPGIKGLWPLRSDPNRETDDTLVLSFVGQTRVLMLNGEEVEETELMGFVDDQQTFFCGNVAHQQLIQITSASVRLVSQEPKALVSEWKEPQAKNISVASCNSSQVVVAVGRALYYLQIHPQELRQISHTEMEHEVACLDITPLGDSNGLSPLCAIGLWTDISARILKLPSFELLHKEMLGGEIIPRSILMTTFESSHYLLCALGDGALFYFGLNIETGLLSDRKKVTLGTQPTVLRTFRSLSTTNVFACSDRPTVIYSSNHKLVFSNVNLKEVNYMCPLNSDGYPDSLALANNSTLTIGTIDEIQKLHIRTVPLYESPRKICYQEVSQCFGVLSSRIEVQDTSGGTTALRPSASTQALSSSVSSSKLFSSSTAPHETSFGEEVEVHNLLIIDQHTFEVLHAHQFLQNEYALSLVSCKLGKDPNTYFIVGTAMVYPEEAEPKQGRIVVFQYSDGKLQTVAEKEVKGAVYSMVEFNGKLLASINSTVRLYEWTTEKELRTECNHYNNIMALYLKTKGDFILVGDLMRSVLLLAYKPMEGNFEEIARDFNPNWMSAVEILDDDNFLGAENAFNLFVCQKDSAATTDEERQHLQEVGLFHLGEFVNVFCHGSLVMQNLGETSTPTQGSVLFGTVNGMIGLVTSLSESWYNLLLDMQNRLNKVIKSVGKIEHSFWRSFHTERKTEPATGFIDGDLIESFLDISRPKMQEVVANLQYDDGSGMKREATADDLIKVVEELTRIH
T2 sequence (Q13619 whole entry partner): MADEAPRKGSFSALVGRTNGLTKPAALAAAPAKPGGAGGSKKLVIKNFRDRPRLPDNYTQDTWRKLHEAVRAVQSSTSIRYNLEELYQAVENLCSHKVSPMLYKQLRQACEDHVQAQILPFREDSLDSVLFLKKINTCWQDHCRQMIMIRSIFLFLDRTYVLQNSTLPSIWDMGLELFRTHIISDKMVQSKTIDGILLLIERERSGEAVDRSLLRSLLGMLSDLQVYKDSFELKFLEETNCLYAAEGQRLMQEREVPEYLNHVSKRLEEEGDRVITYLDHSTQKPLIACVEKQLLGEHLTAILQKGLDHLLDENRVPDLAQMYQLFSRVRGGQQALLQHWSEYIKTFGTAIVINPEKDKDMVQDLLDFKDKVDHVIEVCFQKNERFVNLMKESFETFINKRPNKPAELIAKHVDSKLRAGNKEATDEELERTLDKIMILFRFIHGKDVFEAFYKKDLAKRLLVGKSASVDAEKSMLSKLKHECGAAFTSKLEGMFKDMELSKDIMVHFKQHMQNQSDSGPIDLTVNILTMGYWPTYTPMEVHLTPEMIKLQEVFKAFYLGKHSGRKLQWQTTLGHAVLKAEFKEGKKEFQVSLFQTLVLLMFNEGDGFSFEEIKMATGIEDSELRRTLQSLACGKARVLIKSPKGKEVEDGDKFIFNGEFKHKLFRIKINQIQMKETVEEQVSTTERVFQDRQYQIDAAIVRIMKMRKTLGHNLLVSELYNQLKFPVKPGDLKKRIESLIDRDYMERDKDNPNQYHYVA
T2 sequence (P62877 whole entry partner): as the sequence (P62877 whole entry partner) above

Structure (SMILES): CCOc1cc(C(C)(C)C)ccc1C1=N[C@@](C)(c2ccc(Cl)cc2)[C@@](C)(c2ccc(Cl)cc2)N1C(=O)N1CCN(CC(=O)NCCCCNC(=O)COc2cccc3c2C(=O)N(C2CCC(=O)NC2=O)C3=O)CC1 (mixture of isomers) [YX-02-041, 2-(4-((4S,5R)-2-(4-(tert-butyl)-2-ethoxyphenyl)-4,5-bis(4-chlorophenyl)-4,5-dimethyl-4,5-dihydro-1H-imidazole-1-carbonyl)piperazin-1-yl)-N-(4-(2-((2-(2,6-dioxopiperidin-3-yl)-1,3-dioxoisoindolin-4-yl)oxy)acetamido)butyl)acetamide]
- IC50 (MCF7): ~20 µM
- IC50 (Mdm2 [1]): 3 nM
- cytotoxicity to mutant p53 cells (mut p53 MDA-MD-231 cells; other studies, compared with MCF7): much less cytotoxic
- IC50 (VHL): > 10 µM
- Mdm2 degradation (Mdm2 [2]): did not provide robust degradation

Structure (SMILES): CCOc1cc(C(C)(C)C)ccc1C1=NC(C)(c2ccc(Cl)cc2)C(C)(c2ccc(Cl)cc2)N1C(=O)N1CCN(CC(=O)N[C@H](C(=O)N2C[C@H](O)C[C@H]2C(=O)NCc2ccc(-c3scnc3C)cc2)C(C)(C)C)CC1 (stereo in doubt) [YX-02-230, 1-(2-(2-(4-((4S,5R)-2-(4-(tert-butyl)-2-ethoxyphenyl)-4,5-bis(4-chlorophenyl)-4,5-dimethyl-4,5-dihydro-1H-imidazole-1-carbonyl)piperazin-1-yl)acetamido)-3,3-dimethylbutanoyl)-4-hydroxy-N-(4-(4-methylthiazol-5-yl)benzyl)pyrrolidine-2-carboxamide]
- IC50 (Mdm2 [1]): 18 nM
- IC50 [3]: > 10 µM

Structure (SMILES): CC1(C)CCC(c2ccc(Cl)cc2)=C(CN2CCN(c3ccc(C(=O)NS(=O)(=O)c4ccc(N[C@H](CCN5CCOCC5)CSc5ccccc5)c(S(=O)(=O)C(F)(F)F)c4)cc3)CC2)C1 [ABT-263/Navitoclax, Navitoclax, reference compound]
- response of Mdm2-/-p53-/- sarcoma cells [4]: responsive

Structure (SMILES): O=C1CCC(N2Cc3c(C#CCCCNC(=O)c4ccc(NC(=O)[C@@H]5NC6(CCCCC6)[C@@]6(C(=O)Nc7cc(Cl)ccc76)[C@H]5c5cccc(Cl)c5F)cc4)cccc3C2=O)C(=O)N1 (stereo partly drawn) [MD-224, reference compound]
- cytotoxic effect, number of live cells (mut p53 MDA-MD-231 cells; after 24 h and 48 h treatment): no cytotoxic effect
- Mdm2 protein level (Mdm2 [5]): modest degradation
- Mdm2 degradation (Mdm2 [2]): did not reduce Mdm2 protein level

Structure (SMILES): COc1ccc(C2=N[C@@H](c3ccc(Cl)cc3)[C@@H](c3ccc(Cl)cc3)N2C(=O)N2CCNC(=O)C2)c(OC(C)C)c1 [Nutlin-3, reference compound]
- IC50 (VHL complex): > 10 µM
